What was measured:
[1] = biological target: T1, Muscarinic acetylcholine receptor M1 (Homo sapiens) (UniProt P11229); assay: Agonist activity at human muscarinic M1 receptor expressed in CHO-K1 cells assessed as increase of acetylcholine-induced calcium flux by FLIPR assay relative to acetylcholine; assay type: functional, cell-based
T1 sequence (whole entry): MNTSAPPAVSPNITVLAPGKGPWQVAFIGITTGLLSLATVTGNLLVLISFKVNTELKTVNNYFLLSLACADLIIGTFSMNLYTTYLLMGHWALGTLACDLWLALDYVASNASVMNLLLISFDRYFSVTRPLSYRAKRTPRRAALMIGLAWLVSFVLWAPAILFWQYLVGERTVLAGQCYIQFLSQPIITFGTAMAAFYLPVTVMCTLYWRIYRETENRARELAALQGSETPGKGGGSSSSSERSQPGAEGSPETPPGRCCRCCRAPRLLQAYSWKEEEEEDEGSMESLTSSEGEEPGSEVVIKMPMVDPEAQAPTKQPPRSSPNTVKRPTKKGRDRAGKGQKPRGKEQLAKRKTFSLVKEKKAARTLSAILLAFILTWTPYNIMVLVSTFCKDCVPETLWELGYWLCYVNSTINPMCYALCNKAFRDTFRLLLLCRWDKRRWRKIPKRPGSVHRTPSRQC

[2] = biological target: T2, Muscarinic acetylcholine receptor M1 (Homo sapiens, UniProt P11229)
T2 sequence (P11229 whole entry): T1 sequence (whole entry)

[3] = biological target: T3, Muscarinic acetylcholine receptor M3 (Homo sapiens, UniProt P20309); assay: Agonist activity at human muscarinic M3 receptor expressed in BHK-21 cells assessed as increase of acetylcholine-induced calcium flux at 10 uM by FLIPR assay relative to acetylcholine; assay type: functional, cell-based
Target sequence in this assay (P20309 whole entry, looked up): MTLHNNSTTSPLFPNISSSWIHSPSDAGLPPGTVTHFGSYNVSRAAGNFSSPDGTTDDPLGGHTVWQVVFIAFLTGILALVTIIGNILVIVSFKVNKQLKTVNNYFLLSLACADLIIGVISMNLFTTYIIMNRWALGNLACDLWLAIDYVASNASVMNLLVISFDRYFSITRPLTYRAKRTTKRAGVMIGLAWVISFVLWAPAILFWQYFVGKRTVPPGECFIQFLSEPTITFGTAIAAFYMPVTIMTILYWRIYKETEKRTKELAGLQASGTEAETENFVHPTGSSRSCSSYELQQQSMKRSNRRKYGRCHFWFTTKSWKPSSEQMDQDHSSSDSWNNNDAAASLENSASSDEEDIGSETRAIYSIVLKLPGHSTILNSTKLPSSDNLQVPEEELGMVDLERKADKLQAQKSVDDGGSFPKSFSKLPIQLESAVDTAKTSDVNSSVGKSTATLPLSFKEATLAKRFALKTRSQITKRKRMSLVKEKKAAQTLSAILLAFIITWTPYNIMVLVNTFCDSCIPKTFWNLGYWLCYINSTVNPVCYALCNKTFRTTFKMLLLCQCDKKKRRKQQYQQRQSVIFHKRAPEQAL

[4] = biological target: T4, Muscarinic acetylcholine receptor M4 (Homo sapiens) (UniProt P08173); assay: Agonist activity at human muscarinic M4 receptor expressed in BHK-21 cells coexpressing Galpha16 subunit assessed as increase of acetylcholine-induced calcium flux at 10 uM by FLIPR assay relative to acetylcholine; assay type: functional, cell-based
T4 sequence (whole entry): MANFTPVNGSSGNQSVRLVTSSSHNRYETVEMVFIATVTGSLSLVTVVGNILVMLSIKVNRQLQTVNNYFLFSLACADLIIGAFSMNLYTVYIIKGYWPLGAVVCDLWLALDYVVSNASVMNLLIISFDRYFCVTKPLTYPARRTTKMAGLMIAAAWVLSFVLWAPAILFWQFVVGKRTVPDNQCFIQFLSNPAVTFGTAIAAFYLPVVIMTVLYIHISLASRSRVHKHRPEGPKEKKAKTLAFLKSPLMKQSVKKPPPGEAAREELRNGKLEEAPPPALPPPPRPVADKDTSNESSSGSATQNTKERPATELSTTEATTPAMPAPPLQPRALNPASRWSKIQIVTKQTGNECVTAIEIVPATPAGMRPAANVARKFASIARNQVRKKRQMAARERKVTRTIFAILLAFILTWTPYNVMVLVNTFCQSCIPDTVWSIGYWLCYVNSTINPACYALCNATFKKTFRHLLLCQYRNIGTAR

[5] = biological target: T5, Muscarinic acetylcholine receptor M5 (Homo sapiens) (UniProt P08912); assay: Agonist activity at human muscarinic M5 receptor expressed in BHK-21 cells assessed as increase of acetylcholine-induced calcium flux at 10 uM by FLIPR assay relative to acetylcholine; assay type: functional, cell-based
T5 sequence (whole entry): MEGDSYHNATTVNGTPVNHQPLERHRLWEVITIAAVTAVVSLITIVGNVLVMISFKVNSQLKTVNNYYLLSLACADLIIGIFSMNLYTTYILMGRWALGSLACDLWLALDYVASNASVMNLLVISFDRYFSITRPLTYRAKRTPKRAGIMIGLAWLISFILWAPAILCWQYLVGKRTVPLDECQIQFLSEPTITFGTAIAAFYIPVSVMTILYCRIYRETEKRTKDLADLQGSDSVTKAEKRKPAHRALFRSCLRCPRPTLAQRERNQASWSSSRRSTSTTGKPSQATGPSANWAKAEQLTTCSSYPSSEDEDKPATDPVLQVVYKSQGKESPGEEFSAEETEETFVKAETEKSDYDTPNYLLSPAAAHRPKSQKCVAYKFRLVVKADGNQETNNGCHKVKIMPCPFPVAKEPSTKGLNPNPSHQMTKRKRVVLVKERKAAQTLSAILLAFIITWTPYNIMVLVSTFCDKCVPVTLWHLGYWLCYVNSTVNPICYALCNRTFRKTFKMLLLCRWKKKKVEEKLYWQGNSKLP

[6] = biological target: T6, Muscarinic acetylcholine receptor M2 (Homo sapiens, UniProt P08172); assay: Displacement of [3H]-AFDX-384 from human muscarinic M2 receptor expressed in CHO-K1 cells; assay type: cell-based
T6 sequence (P08172 whole entry): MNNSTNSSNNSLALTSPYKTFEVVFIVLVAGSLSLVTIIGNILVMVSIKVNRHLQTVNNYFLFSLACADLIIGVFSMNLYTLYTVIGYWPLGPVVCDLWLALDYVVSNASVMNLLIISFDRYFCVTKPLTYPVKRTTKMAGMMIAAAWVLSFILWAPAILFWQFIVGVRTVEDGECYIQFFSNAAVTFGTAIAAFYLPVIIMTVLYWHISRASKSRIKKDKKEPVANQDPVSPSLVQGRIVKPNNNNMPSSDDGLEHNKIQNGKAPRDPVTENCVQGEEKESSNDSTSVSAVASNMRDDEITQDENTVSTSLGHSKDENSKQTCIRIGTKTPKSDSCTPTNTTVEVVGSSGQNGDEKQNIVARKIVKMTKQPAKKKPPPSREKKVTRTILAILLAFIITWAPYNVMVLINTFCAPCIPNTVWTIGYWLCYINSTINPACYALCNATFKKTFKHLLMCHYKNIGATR

[7] = biological target: 5-hydroxytryptamine receptor 2C (Homo sapiens, UniProt P28335); assay: Binding affinity to human 5HT2C receptor agonist site by radioligand displacement assay
[8] = biological target: Alpha-1A adrenergic receptor (Homo sapiens, UniProt P35348); assay: Binding affinity to human adrenergic alpha1A receptor by radioligand displacement assay
[9] = biological target: Alpha-1B adrenergic receptor (Homo sapiens, UniProt P35368); assay: Binding affinity to human adrenergic Alpha-1B receptor by radioligand displacement assay
[10] = biological target: Alpha-1D adrenergic receptor (Homo sapiens, UniProt P25100); assay: Binding affinity to human adrenergic Alpha-1D receptor by radioligand displacement assay
[11] = biological target: T7, Muscarinic acetylcholine receptor M5 (Homo sapiens, UniProt P08912); assay: biochemical
T7 sequence (P08912 whole entry): T5 sequence (whole entry)
Description: Displacement of [3H]-4-DAMP from human muscarinic M5 receptor expressed in BHK-21 cells

[12] = biological target: T1, Muscarinic acetylcholine receptor M1 (Homo sapiens); assay: Agonist activity at human muscarinic M1 receptor expressed in CHO-K1 cells assessed as increase of acetylcholine-induced calcium flux at 10 uM by FLIPR assay relative to acetylcholine; assay type: functional, cell-based
[13] = biological target: T8, Muscarinic acetylcholine receptor M2 (Homo sapiens) (UniProt P08172); assay: Agonist activity at human muscarinic M2 receptor expressed in CHO-K1 cells coexpressing Galpha16 subunit assessed as increase of acetylcholine-induced calcium flux at 10 uM by FLIPR assay relative to acetylcholine; assay type: functional, cell-based
T8 sequence (whole entry): T6 sequence (P08172 whole entry)

[14] = biological target: T9, Muscarinic acetylcholine receptor M4 (Homo sapiens, UniProt P08173); assay: Agonist activity at human muscarinic M4 receptor expressed in BHK-21 cells coexpressing Galpha16 subunit assessed as increase of acetylcholine-induced calcium flux by FLIPR assay; assay type: functional, cell-based
T9 sequence (P08173 whole entry): T4 sequence (whole entry)

[15] = biological target: T4, Muscarinic acetylcholine receptor M4 (Homo sapiens); assay: Agonist activity at human muscarinic M4 receptor expressed in BHK-21 cells coexpressing Galpha16 subunit assessed as increase of acetylcholine-induced calcium flux by FLIPR assay relative to acetylcholine; assay type: functional, cell-based
[16] = biological target: T7, Muscarinic acetylcholine receptor M5; assay: Agonist activity at human muscarinic M5 receptor expressed in BHK-21 cells assessed as increase of acetylcholine-induced calcium flux by FLIPR assay; assay type: functional, cell-based
[17] = biological target: T5, Muscarinic acetylcholine receptor M5 (Homo sapiens); assay: Agonist activity at human muscarinic M5 receptor expressed in BHK-21 cells assessed as increase of acetylcholine-induced calcium flux by FLIPR assay relative to acetylcholine; assay type: functional, cell-based
[18] = biological target: T3, Muscarinic acetylcholine receptor M3; assay: Displacement of [3H]-4-DAMP from human muscarinic M3 receptor expressed in BHK-21 cells; assay type: cell-based
Target sequence in this assay (P20309 whole entry): as the sequence (P20309 whole entry, looked up) above

[19] = tested on: Muscarinic acetylcholine receptor M1 (Homo sapiens), P11229 [Y381A]; assay: Agonist activity at human muscarinic M1 receptor Y381A mutant expressed in CHO-K1 cells assessed as increase of acetylcholine-induced calcium flux by FLIPR assay relative to acetylcholine; assay type: functional, cell-based
[20] = biological target: Muscarinic acetylcholine receptor M1 (Homo sapiens, UniProt P11229, Y381A)
[21] = biological target: T3, Muscarinic acetylcholine receptor M3
Target sequence in this assay (P20309 whole entry): as the sequence (P20309 whole entry, looked up) above

Sequence of Alpha-1B adrenergic receptor (P35368 whole entry): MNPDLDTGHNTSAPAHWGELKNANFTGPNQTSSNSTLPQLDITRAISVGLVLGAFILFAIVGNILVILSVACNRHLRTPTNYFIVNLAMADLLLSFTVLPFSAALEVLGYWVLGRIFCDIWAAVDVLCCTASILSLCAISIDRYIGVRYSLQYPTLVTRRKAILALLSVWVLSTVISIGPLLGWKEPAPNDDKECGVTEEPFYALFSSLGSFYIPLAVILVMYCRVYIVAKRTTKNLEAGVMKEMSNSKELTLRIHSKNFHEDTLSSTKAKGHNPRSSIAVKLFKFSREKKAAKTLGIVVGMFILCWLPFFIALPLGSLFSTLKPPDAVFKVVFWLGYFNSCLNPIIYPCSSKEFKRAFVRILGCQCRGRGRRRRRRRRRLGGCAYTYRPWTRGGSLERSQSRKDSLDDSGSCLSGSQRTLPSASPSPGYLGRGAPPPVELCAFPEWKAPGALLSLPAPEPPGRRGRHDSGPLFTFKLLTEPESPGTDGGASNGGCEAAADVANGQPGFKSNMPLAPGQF
Sequence of 5-hydroxytryptamine receptor 2C (P28335 whole entry): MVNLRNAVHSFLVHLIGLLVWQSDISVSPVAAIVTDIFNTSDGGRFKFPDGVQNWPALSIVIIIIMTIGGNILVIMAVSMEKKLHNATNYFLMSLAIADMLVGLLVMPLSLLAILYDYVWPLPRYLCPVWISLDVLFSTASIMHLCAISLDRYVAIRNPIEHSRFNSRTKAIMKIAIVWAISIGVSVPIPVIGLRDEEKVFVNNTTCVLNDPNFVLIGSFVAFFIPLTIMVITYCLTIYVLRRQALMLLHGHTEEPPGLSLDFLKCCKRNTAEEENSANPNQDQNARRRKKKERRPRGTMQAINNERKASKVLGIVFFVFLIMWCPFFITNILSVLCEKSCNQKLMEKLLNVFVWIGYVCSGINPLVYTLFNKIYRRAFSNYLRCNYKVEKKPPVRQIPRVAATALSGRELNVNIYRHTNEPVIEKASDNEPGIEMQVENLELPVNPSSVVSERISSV
Sequence of Alpha-1D adrenergic receptor (P25100 whole entry): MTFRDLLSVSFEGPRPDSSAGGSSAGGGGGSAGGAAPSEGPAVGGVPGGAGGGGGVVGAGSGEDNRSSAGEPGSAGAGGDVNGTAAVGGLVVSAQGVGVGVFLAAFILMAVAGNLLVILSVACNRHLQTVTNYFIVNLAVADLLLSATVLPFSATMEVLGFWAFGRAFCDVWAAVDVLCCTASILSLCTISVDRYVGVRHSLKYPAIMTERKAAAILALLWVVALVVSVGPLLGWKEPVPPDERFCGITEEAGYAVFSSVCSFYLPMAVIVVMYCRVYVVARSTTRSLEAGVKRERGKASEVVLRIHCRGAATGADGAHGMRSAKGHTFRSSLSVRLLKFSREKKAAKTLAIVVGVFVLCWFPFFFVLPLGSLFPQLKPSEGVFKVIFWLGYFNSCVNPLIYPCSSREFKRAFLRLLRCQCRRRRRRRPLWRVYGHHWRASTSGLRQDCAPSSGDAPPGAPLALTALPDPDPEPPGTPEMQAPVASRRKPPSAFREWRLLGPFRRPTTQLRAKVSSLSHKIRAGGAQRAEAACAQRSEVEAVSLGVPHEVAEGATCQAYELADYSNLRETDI
Sequence of Alpha-1A adrenergic receptor (P35348 whole entry): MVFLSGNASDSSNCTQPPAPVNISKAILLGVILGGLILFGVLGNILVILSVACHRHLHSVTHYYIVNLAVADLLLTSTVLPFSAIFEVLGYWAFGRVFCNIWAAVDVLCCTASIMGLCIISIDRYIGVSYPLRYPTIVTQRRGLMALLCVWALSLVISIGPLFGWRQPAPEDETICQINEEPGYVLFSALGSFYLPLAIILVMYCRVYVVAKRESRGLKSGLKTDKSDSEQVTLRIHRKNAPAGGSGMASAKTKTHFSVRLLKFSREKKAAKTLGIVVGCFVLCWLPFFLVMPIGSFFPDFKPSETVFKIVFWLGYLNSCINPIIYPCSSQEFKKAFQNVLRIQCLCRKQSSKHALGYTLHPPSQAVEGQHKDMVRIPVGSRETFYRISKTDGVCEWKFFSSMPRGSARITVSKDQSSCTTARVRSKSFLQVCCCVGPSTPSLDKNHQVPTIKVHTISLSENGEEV
Sequence of Muscarinic acetylcholine receptor M1 (Homo sapiens), P11229 [Y381A] (P11229 whole entry Y381A): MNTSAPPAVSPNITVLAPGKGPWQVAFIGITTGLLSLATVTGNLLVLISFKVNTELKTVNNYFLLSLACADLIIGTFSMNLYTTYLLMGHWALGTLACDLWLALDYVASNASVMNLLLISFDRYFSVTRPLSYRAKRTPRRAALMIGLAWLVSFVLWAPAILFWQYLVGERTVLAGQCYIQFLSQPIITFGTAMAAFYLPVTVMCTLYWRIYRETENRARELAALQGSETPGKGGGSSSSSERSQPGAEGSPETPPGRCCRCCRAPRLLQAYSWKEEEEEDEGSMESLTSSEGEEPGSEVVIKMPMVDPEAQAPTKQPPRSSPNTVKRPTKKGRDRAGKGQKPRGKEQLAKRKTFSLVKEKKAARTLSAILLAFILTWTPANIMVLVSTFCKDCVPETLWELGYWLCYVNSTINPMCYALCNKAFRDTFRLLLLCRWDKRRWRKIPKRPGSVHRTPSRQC
Sequence of Muscarinic acetylcholine receptor M1 (Homo sapiens, UniProt P11229, Y381A) (P11229 whole entry Y381A): as above

| Structure (SMILES) | Emax [1] | EC50 [2] | further results |
| --- | --- | --- | --- |
| O=C(Cc1ccccc1)NC1CCN(CCCn2c(=O)oc3ccccc32)CC1 | 70% | 1100 nM | – |
| CCC(=O)NC1CCN(CCCN2C(=O)COc3cc(F)c(F)cc32)CC1 | 88% | 10 nM | – |
| O=C(Cc1ccccc1)NC1CCN(CCCN2C(=O)CCc3cc(F)ccc32)CC1 | 79% | 49 nM | – |
| Cc1ccccc1CN1CCC(N2CCC(n3c(=O)[nH]c4ccccc43)CC2)CC1 | 86% | – | Emax [3]: 1%; Emax [4]: 38%; Emax [5]: 5%; Ki [6]: 320 nM; Ki [7]: 85 nM; Ki [8]: 11 nM; Ki [9]: 19 nM; Ki [10]: 290 nM; Ki [11]: 940 nM |
| O=C(Cc1ccccc1)NC1CCN(CCCN2C(=O)CCc3c(F)cccc32)CC1 | 77% | 150 nM | – |
| CCC(=O)NC1CCN(CCCN2C(=O)COc3ccccc32)CC1 | 78% | 27 nM | – |
| CC(C)C(=O)NC1CCN(CCCN2C(=O)COc3ccccc32)CC1 | 72% | 46 nM | – |
| COc1ccc2c(c1)N(CCCN1CCC(NC(=O)Cc3ccccc3)CC1)C(=O)CC2 | 83% | 120 nM | – |
| CC(C)CC(=O)NC1CCN(CCCN2C(=O)COc3ccccc32)CC1 | – | – | Emax [12]: 21% |
| O=C(Cc1ccccc1)NC1CCN(CCCN2C(=O)CCc3cccc(F)c32)CC1 | 75% | 290 nM | – |
| O=C(NC1CCN(CCCN2C(=O)COc3ccccc32)CC1)C1CCCCC1 | – | – | Emax [12]: 3% |
| CCC(=O)NC1CCN(CCCN2C(=O)CCc3ccc(F)cc32)CC1 | 83% | 20 nM | – |
| O=C(NC1CCN(CCCN2C(=O)COc3ccccc32)CC1)C1CCCC1 | 41% | 350 nM | – |
| O=C(NC1CCN(CCCN2C(=O)COc3ccccc32)CC1)c1ccccc1 | – | – | Emax [12]: 8% |
| CCC(=O)NC1CCN(CCCN2C(=O)CCc3cc(F)ccc32)CC1 | 83% | 9 nM | – |
| COc1ccc(CC(=O)NC2CCN(CCCN3C(=O)CCc4cc(F)c(F)cc43)CC2)cc1OC | 91% | 13 nM | Emax [13]: 2%; Emax [3]: 7%; EC50 [14]: 300 nM; Emax [15]: 48%; EC50 [16]: 1200 nM; Emax [17]: 52% |
| COc1cccc(CC(=O)NC2CCN(CCCN3C(=O)COc4ccccc43)CC2)c1 | 86% | 130 nM | Emax [13]: 0%; Emax [3]: 0%; Emax [4]: 3%; Emax [5]: 6% |

| Structure (SMILES) | Emax [1] | EC50 [2] | further results |
| --- | --- | --- | --- |
| CCC(=O)NC1CCN(CCCN2C(=O)CCc3cc(F)c(F)cc32)CC1 | 87% | 20 nM | – |
| CC(=O)NC1CCN(CCCN2C(=O)CCc3cc(F)c(F)cc32)CC1 | 76% | 86 nM | – |
| Clc1ccc2c(c1)N=C(N1CCNCC1)c1ccccc1N2 [N-DESMETHYLCLOZAPINE] | 75% | 18 nM | Emax [13]: 3%; Emax [3]: 10%; Emax [15]: 12%; EC50 [16]: 170 nM; Emax [17]: 34%; Ki [6]: 250 nM; Ki [18]: 90 nM; Emax [19]: 72%; EC50 [20]: 140 nM; Ki [11]: 51 nM |
| O=C(Cc1ccccc1)NC1CCN(CCCN2C(=O)CCc3ccc(F)cc32)CC1 | 86% | 51 nM | – |
| COc1ccc2c(c1)CCC(=O)N2CCCN1CCC(NC(=O)Cc2ccccc2)CC1 | 84% | 560 nM | – |
| O=C(Cc1ccccc1)NC1CCN(CCCN2C(=O)CCc3cc(F)c(F)cc32)CC1 | 89% | 15 nM | – |
| O=C(NC1CCN(CCCN2C(=O)COc3ccccc32)CC1)C1CCC1 | 37% | 160 nM | – |
| O=C(CCc1ccccc1)NC1CCN(CCCN2C(=O)COc3ccccc32)CC1 | 60% | 970 nM | – |
| CN(C(=O)Cc1ccccc1)C1CCN(CCCN2C(=O)COc3ccccc32)CC1 | 67% | 910 nM | – |
| CC(=O)NC1CCN(CCCN2C(=O)COc3ccccc32)CC1 | 74% | 180 nM | – |
| O=C(NC1CCN(CCCN2C(=O)COc3ccccc32)CC1)C1CC1 | 74% | 110 nM | – |
| CCC(=O)NC1CCN(CCCN2C(=O)CCc3c(F)cccc32)CC1 | 90% | 19 nM | – |
| CCCCCCOc1nsnc1C1=CCCN(C)C1 [XANOMELINE] | 89% | – | Emax [13]: 9%; Emax [15]: 72%; Emax [17]: 60%; Ki [18]: 13 nM; EC50 [21]: 120 nM |
| O=C(Cc1ccccc1)NC1CCN(CCCN2C(=O)CSc3ccccc32)CC1 | 79% | 100 nM | – |
| O=C(Cc1ccccc1)NC1CCN(CCCN2C(=O)CCc3ccccc32)CC1 | 89% | 48 nM | – |
| CCC(=O)NC1CCN(CCCN2C(=O)CCc3cccc(F)c32)CC1 | 78% | 310 nM | – |
